Earlier results, collected in US5141290A, “Toothbrush” (Hamivreshet Brush Factory, priority 1990, dated 1992).

Test system: dental plaque

For [H]/N=C(\N/C(=N/[H])NCCCCCCNC(=N)NC(=N)Nc1ccc(Cl)cc1)Nc1ccc(Cl)cc1 [chlorhexidine], the “potential to inhibit the formation of plaque” value (clinically tested, among chemical agents) is listed as “has shown the greatest promise” and the plaque-reducing property (in vivo) is listed as “high plaque-reducing property”.
